EC50 and IC50 data for six compounds are collected here from US20250109140A1, “5-[5-(PIPERIDIN-4-YL)THIENO[3,2-C]PYRAZOL-2-YL]INDAZOLE DERIVATIVES AND RELATED COMPOUNDS AS MODULATORS FOR SPLICING NUCLEIC ACIDS AND FOR THE TREATMENT OF PROLIFERATIVE DISEASES” (REMIX THERAPUTICS INC., priority 2022, published 2025).

A word on the EC50: it is the midpoint of the concentration-response curve. Lower therefore signals an effect from little substance.

Like-named read-outs stand apart in the source and are kept apart here.

Common to all, as to assay type: cell-based
For assay [1], the system named is HTT mRNA. Put plainly: Splicing RT-qPCR assay, HTT canonical (CJ) and alternative (AJ) junction mRNA. Conditions: Homo sapiens; for EC50: AC50 = 50% response in AJ mRNA increase. On the procedure: (§1) Compounds described herein were used to modulate RNA transcript abundance in cells. The expression of a target mRNA was measured by detecting the formation of an exon-exon junction in the canonical transcript (CJ). A compound mediated exon-inclusion event was detected by observing an increase in formation of a new junction with an alternative exon (AJ). Real-time qPCR assays were used to detect these splicing switches and interrogate the potency of various compounds towards different target genes. A high-throughput real time quantitative PCR (RT-qPCR) assay was developed to measure these two isoforms of the mRNA (CJ and AJ) for exemplary genes, such as HTT, SMN2, and MYB, together with a control housekeeping gene, GAPDH or GUSB or PPIA, used for normalization. Briefly, the A673 or K562 cell line was treated with various compounds described herein (e.g., compounds of Formula (I)). After treatment, the levels of the HTT, MYB, or SMN2 mRNA targets were determined from each sample of cell lysate by cDNA synthesis followed by qPCR.
(§2) The A673 cell line was cultured in DMEM with 10% FBS. Cells were diluted with full growth media and plated in a 96-well plate (15,000 cells in 100 ul media per well). The plate was incubated at 37° C. with 5% CO2 for 24 hours to allow cells to adhere. An 11-point 3-fold serial dilution of the compounds was made in DMSO then diluted in media in an intermediate plate. Compounds were transferred from the intermediate plate to the cell plate with the top dose at a final concentration of 10 uM in the well. Final DMSO concentration was kept at or below 0.25%. The cell plate was returned to the incubator at 37° C. with 5% CO2 for an additional 24 hours.
(§3) The K562 cell line was cultured in IMDM with 10% FBS. For K562, cells were diluted with full growth media and plated in either a 96-well plate (50,000 cells in 50 uL media per well) or a 384-well plate (8,000-40,000 cells in 45 uL media per well). An 11-point 3-fold serial dilution of the compounds were made in DMSO then diluted in media in an intermediate plate. Compound was transferred from the intermediate plate to the cell plate with the top dose at a final concentration of 10 uM in the well. Final DMSO concentration was kept at or below 0.25%. Final volume was 100 uL for 96-well plate and 50 uL for 384-well plate. The cell plate was then placed in an incubator at 37° C. with 5% CO2 for 24 hours.
(§4) The cells were then gently washed with 50 uL-100 uL cold PBS before proceeding to addition of lysis buffer. 30 uL-50 uL of room temperature lysis buffer with DNAse I (and optionally RNAsin) was added to each well. Cells were shaken/mixed thoroughly at room temperature for 5-10 minutes for lysis to take place and then 3 uL-5 uL of room temperature stop solution was added and wells were shaken/mixed again. After 2-5 minutes, the cell lysate plate was transferred to ice for RT-qPCR reaction setup. The lysates could also be frozen at-80° C. for later use.
(§5) In some cases, a direct lysis buffer was used. An appropriate volume of 3× lysis buffer (10 mM Tris, 150 mM NaCl, 1.5%-2.5% Igepal and 0.1-1 U/uL RNAsin, pH 7.4) was directly added to either K562 or A673 cells in media and mixed by pipetting 3 times. The plates were then incubated at room temperature with shaking/rocking for 20-50 minutes to allow for lysis to take place. After this time, the cell lysate plate was transferred to ice to set up for the RT-qPCR reactions. The lysates could also be frozen at −80° C. for later use.
(§6) To set up 10 uL RT-qPCR reactions, cell lysates were transferred to 384-well qPCR plates containing the master mix according to the table below. The plates were sealed, gently vortexed, and spun down before the run. The volumes were adjusted accordingly in some instances where the reaction was carried in 20 μL. The table below summarizes the components of the RT-qPCR reactions:
(§7) The RT-qPCR reaction was performed using a QuantStudio (ThermoFisher) under the following fast cycling conditions. […]
Background: Quantitative PCR measures a nucleic acid by following its amplification.

The subject of assay [2] is MYB mRNA. The assay can be described thus: Splicing RT-qPCR assay, MYB canonical (CJ) and alternative (AJ) junction mRNA. Particulars: Homo sapiens; for EC50: AC50 = 50% response in AJ mRNA increase. How it is done:
as §1, §2, §3, §4, §5, §6, §7

Assay [3] concerns SMN2 mRNA. The assay can be described thus: Splicing RT-qPCR gene panel, SMN2 canonical junction (CJ) mRNA. Conditions: Homo sapiens; Table 8; larger gene panel, decrease in CJ mRNA levels. How it is done: as §1, §2, §3, §4, §5, §6, §7
Assay [4] deals with Target C mRNA. The assay can be described thus: Splicing RT-qPCR gene panel, Target C canonical junction (CJ) mRNA. Conditions: Homo sapiens; Table 8; larger gene panel, decrease in CJ mRNA levels. On the procedure: as §1, §2, §3, §4, §5, §6, §7
[5] abbreviates: Table 7, RT-qPCR, A673 or K562 cells, 24 hours treatment.
[6] abbreviates: Table 7, IC50 = 50% response in CJ mRNA decrease, RT-qPCR, A673 or K562 cells, 24 hours treatment, read-out: HTT CJ.
The mark [7] stands for this setting: Table 8, larger gene panel, decrease in CJ mRNA levels, read-out: HTT CJ IC50.
Setting [8] is: Table 7, IC50 = 50% response in CJ mRNA decrease, RT-qPCR, A673 or K562 cells, 24 hours treatment, read-out: MYB CJ.
Where [9] appears, read: Table 8, larger gene panel, decrease in CJ mRNA levels, read-out: MYB CJ IC50.

For the compound `Cn1cc2cc(-c3nc4sc(N5CCNC(C)(C)C5)cc4s3)cc(F)c2n1` [Compound 142, 5-[5-(3,3-dimethylpiperazin-1-yl)thieno[2,3-d][1,3]thiazol-2-yl]-7-fluoro-2-methylindazole], the concentration for a half-maximal effect (EC50) in assay [1] (setting [5]) and in assay [2] (setting [5]) was 0.1 to 1 µM throughout. For the same compound, the IC50 in assay [1] (setting [6]) was 0.1 to 1 µM; in assay [1] (setting [7]) it was 0.1 to 1 µM; in assay [2] (setting [8]) it was 0.1 to 1 µM; in assay [2] (setting [9]), 0.1 to 1 µM; in assay [3], < 0.1 µM; in assay [4], 1 to 10 µM.

Turning to `Cn1cc2cc(-c3nc4sc(N5CCC(NC(C)(C)C)C5)cc4s3)cc(F)c2n1` (centres unmarked) [Compound 143, N-tert-butyl-1-[2-(7-fluoro-2-methylindazol-5-yl)thieno[2,3-d][1,3]thiazol-5-yl]pyrrolidin-3-amine], the results for the EC50 in assay [1] (setting [5]) and in assay [2] (setting [5]) were 1 to 10 µM and 0.1 to 1 µM, respectively. Moreover, the IC50 lay in the range of 1 to 10 µM in assay [1] (setting [6]); 1 to 10 µM in assay [1] (setting [7]); 1 to 10 µM in assay [2] (setting [8]); 0.1 to 1 µM in assay [2] (setting [9]); 0.1 to 1 µM in assay [3]; 1 to 10 µM in assay [4].

Consider `Cn1cc2cc(-c3nc4sc(N5CCN6CCCC6C5)cc4s3)cc(F)c2n1` (centres unmarked) [Compound 144, 7-fluoro-5-(5-[hexahydro-1H-pyrrolo[1,2-a]pyrazin-2-yl]thieno[2,3-d][1,3]thiazol-2-yl)-2-methylindazole], for which the EC50 in assay [1] (setting [5]) and in assay [2] (setting [5]) was 0.1 to 1 µM in each case. Further, the IC50 is 1 to 10 µM in assay [1] (setting [6]); 0.1 to 1 µM in assay [1] (setting [7]); 1 to 10 µM in assay [2] (setting [8]); 0.1 to 1 µM in assay [2] (setting [9]); < 0.1 µM in assay [3]; > 10 µM in assay [4].

As for `CN1CCC(N(C)c2cc3sc(-c4cc(F)c5nn(C)cc5c4)nc3s2)CC1` [Compound 145, N-[2-(7-fluoro-2-methylindazol-5-yl)thieno[2,3-d][1,3]thiazol-5-yl]-N,1-dimethylpiperidin-4-amine], the EC50 in assay [1] (setting [5]) is > 10 µM; in assay [2] (setting [5]) it was 1 to 10 µM. Further, the IC50 in assay [1] (setting [6]) was > 10 µM; in assay [1] (setting [7]), > 10 µM; in assay [2] (setting [8]) it was 1 to 10 µM; in assay [2] (setting [9]), 1 to 10 µM; in assay [3] it was 0.1 to 1 µM; in assay [4], > 10 µM.

Regarding `CN1CC2(C1)CN(c1cc3sc(-c4cc(F)c5nn(C)cc5c4)nc3s1)C2` [Compound 146, 7-fluoro-2-methyl-5-(5-[6-methyl-2,6-diazaspiro[3.3]heptan-2-yl]thieno[2,3-d][1,3]thiazol-2-yl)indazole], the IC50 was 0.1 to 1 µM in assay [1] (setting [7]), 0.1 to 1 µM in assay [2] (setting [9]), < 0.1 µM in assay [3] and 0.1 to 1 µM in assay [4].

`Cn1cc2cc(-c3nc4sc(N5CCNCC5)c(Cl)c4s3)cc(F)c2n1` [Compound 147]: the EC50 in assay [1] (setting [5]) is 0.1 to 1 µM; in assay [2] (setting [5]) it was < 0.1 µM. For the same compound, the IC50 is 0.1 to 1 µM in assay [1] (setting [6]); 0.1 to 1 µM in assay [1] (setting [7]); 0.1 to 1 µM in assay [2] (setting [8]); < 0.1 µM in assay [2] (setting [9]); < 0.1 µM in assay [3]; 1 to 10 µM in assay [4].
